Assay results published in patent US5530126A, “Process for the preparation of substituted 6-(pyrazol-3yl)-1,4-benzoxazin-3-ones” (Monsanto Company, priority 1994, dated 1996).

What was measured:
Format in all cases: in vivo
Morningglory [1] = assay: Post-emergence herbicide test; details: Ipomoea, read-out: % plant inhibition (Mogl); for inhibition at 1120 g/ha: 1.12 kg/ha
How it was run: (§1)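 Foliar spray trial in greenhouse pans: two- to three-week-old plants treated at 200 gallons/acre by atomizer, spray containing about 0.4% emulsifier. Percent inhibition compared with untreated controls was recorded around day 11.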

Wild buckwheat [2] = assay: Post-emergence herbicide test; details: Fallopia convolvulus, read-out: % plant inhibition (Wibw); for inhibition at 1120 g/ha: 1.12 kg/ha
How it was run: as §1

Indian Mustard [3] = assay: Post-emergence herbicide test; details: Brassica juncea, read-out: % plant inhibition (Inmu); for inhibition at 1120 g/ha: 1.12 kg/ha
How it was run: as §1

Yellow nutsedge [4] = assay: Post-emergence herbicide test; details: Cyperus, read-out: % plant inhibition (Yens); for inhibition at 1120 g/ha: 1.12 kg/ha
How it was run: as §1

Barnyardgrass [5] = assay: Post-emergence herbicide test; details: Echinochloa crus-galli, read-out: % plant inhibition (Bygr); for inhibition at 1120 g/ha: 1.12 kg/ha
How it was run: as §1

Annual bluegrass [6] = assay: Post-emergence herbicide test; details: read-out: % plant inhibition (Anbg); for inhibition at 1120 g/ha: 1.12 kg/ha
How it was run: as §1

Velvetleaf [7] = assay: Post-emergence herbicide test; details: Abutilon theophrasti, read-out: % plant inhibition (Vele); for inhibition at 1120 g/ha: 1.12 kg/ha
How it was run: as §1

Seedling johnsongrass [8] = assay: Post-emergence herbicide test; details: Sorghum halepense, read-out: % plant inhibition (Sejg); for inhibition at 1120 g/ha: 1.12 kg/ha
How it was run: as §1

Cocklebur [9] = assay: Post-emergence herbicide test; details: Xanthium strumarium, read-out: % plant inhibition (Cobu); for inhibition at 1120 g/ha: 1.12 kg/ha
How it was run: as §1

Downy Brome [10] = assay: Post-emergence herbicide test; details: Bromus tectorum, read-out: % plant inhibition (Dobr); for inhibition at 1120 g/ha: 1.12 kg/ha
How it was run: as §1

Morningglory [11] = assay: Pre-emergence herbicide test; details: Ipomoea, read-out: % plant inhibition (Mogl); for inhibition at 1120 g/ha: 1.12 kg/ha
How it was run: (§2)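 In this greenhouse test, seeds on compacted topsoil receive the active ingredient in an organic solvent or aqueous carrier, are covered with untreated soil and watered from below; percent inhibition is scored approximately 11 days later.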

Wild buckwheat [12] = assay: Pre-emergence herbicide test; details: Fallopia convolvulus, read-out: % plant inhibition (Wibw); for inhibition at 1120 g/ha: 1.12 kg/ha
How it was run: as §2

Indian Mustard [13] = assay: Pre-emergence herbicide test; details: Brassica juncea, read-out: % plant inhibition (Inmu); for inhibition at 1120 g/ha: 1.12 kg/ha
How it was run: as §2

Yellow nutsedge [14] = assay: Pre-emergence herbicide test; details: Cyperus, read-out: % plant inhibition (Yens); for inhibition at 1120 g/ha: 1.12 kg/ha
How it was run: as §2

Barnyardgrass [15] = assay: Pre-emergence herbicide test; details: Echinochloa crus-galli, read-out: % plant inhibition (Bygr); for inhibition at 1120 g/ha: 1.12 kg/ha
How it was run: as §2

Annual bluegrass [16] = assay: Pre-emergence herbicide test; details: read-out: % plant inhibition (Anbg); for inhibition at 1120 g/ha: 1.12 kg/ha
How it was run: as §2

Velvetleaf [17] = assay: Pre-emergence herbicide test; details: Abutilon theophrasti, read-out: % plant inhibition (Vele); for inhibition at 1120 g/ha: 1.12 kg/ha
How it was run: as §2

Seedling johnsongrass [18] = assay: Pre-emergence herbicide test; details: Sorghum halepense, read-out: % plant inhibition (Sejg); for inhibition at 1120 g/ha: 1.12 kg/ha
How it was run: as §2

Cocklebur [19] = assay: Pre-emergence herbicide test; details: Xanthium strumarium, read-out: % plant inhibition (Cobu); for inhibition at 1120 g/ha: 1.12 kg/ha
How it was run: as §2

Downy Brome [20] = assay: Pre-emergence herbicide test; details: Bromus tectorum, read-out: % plant inhibition (Dobr); for inhibition at 1120 g/ha: 1.12 kg/ha
How it was run: as §2

Compound	inhibition at 1120 g/ha (Morningglory [1])	inhibition at 1120 g/ha (Wild buckwheat [2])	inhibition at 1120 g/ha (Indian Mustard [3])	inhibition at 1120 g/ha (Yellow nutsedge [4])	inhibition at 1120 g/ha (Barnyardgrass [5])	inhibition at 1120 g/ha (Annual bluegrass [6])	inhibition at 1120 g/ha (Velvetleaf [7])	inhibition at 1120 g/ha (Seedling johnsongrass [8])	inhibition at 1120 g/ha (Cocklebur [9])	inhibition at 1120 g/ha (Downy Brome [10])	inhibition at 1120 g/ha (Morningglory [11])	inhibition at 1120 g/ha (Wild buckwheat [12])	inhibition at 1120 g/ha (Indian Mustard [13])	inhibition at 1120 g/ha (Yellow nutsedge [14])	inhibition at 1120 g/ha (Barnyardgrass [15])	inhibition at 1120 g/ha (Annual bluegrass [16])	inhibition at 1120 g/ha (Velvetleaf [17])	inhibition at 1120 g/ha (Seedling johnsongrass [18])	inhibition at 1120 g/ha (Cocklebur [19])	inhibition at 1120 g/ha (Downy Brome [20])	further results
COC(=O)C=Cc1cc(-c2nn(C)c(C(F)(F)F)c2Cl)c(F)cc1Cl [Compound 128, 3-(2-chloro-5-(4-chloro-1-methyl-5-(trifluoromethyl)-1H-pyrazol-3-yl)-4-fluorophenyl)propenoic acid, methyl ester]	100%	100%	90%	20%	50%	30%	100%	100%	100%	100%	80%	100%	70%	0%	0%	0%	100%	30%	70%	0%	–
CCOC(=O)CON=Cc1cc(-c2nn(C)c(C(F)(F)F)c2Cl)c(F)cc1Cl [Compound 129]	90%	100%	90%	30%	80%	40%	100%	90%	100%	80%	100%	100%	90%	0%	20%	0%	100%	60%	90%	40%	–
Cn1nc(-c2cc(C=NOCC(=O)O)c(Cl)cc2F)c(Cl)c1C(F)(F)F [Compound 130, ((((2-chloro-5-(4-chloro-1-methyl-5-(trifluoromethyl)-1H-pyrazol-3-yl)-4-fluorophenyl)methylene)amino)oxy)acetic acid]	100%	100%	40%	20%	40%	20%	100%	70%	100%	30%	100%	90%	100%	20%	30%	0%	100%	70%	90%	30%	–
Cn1nc(-c2cc(C=NOCC(N)=O)c(Cl)cc2F)c(Cl)c1C(F)(F)F [Compound 131]	100%	100%	40%	30%	0%	20%	100%	50%	100%	20%	100%	100%	90%	20%	40%	0%	100%	70%	80%	30%	–
Cn1nc(-c2cc(C(Br)Br)c(Cl)cc2F)c(Cl)c1C(F)(F)F [Compound 132, 4-chloro-3-[4-chloro-5-(dibromomethyl)-2-fluorophenyl]-1-methyl-5-(trifluoromethyl)-1H-pyrazole]	–	–	–	–	–	–	–	–	–	–	–	–	–	–	–	–	–	–	–	–	inhibition at 11210 g/ha (Morningglory [1]; 11.21 kg/ha): 100%; inhibition at 11210 g/ha (Wild buckwheat [2]; 11.21 kg/ha): 100%; inhibition at 11210 g/ha (Indian Mustard [3]; 11.21 kg/ha): 100%; inhibition at 11210 g/ha (Yellow nutsedge [4]; 11.21 kg/ha): 30%; inhibition at 11210 g/ha (Barnyardgrass [5]; 11.21 kg/ha): 100%; inhibition at 11210 g/ha (Annual bluegrass [6]; 11.21 kg/ha): 60%; inhibition at 11210 g/ha (Velvetleaf [7]; 11.21 kg/ha): 100%; inhibition at 11210 g/ha (Seedling johnsongrass [8]; 11.21 kg/ha): 100%; inhibition at 11210 g/ha (Cocklebur [9]; 11.21 kg/ha): 100%; inhibition at 11210 g/ha (Downy Brome [10]; 11.21 kg/ha): 80%; inhibition at 11210 g/ha (Morningglory [11]; 11.21 kg/ha): 100%; inhibition at 11210 g/ha (Wild buckwheat [12]; 11.21 kg/ha): 100%; inhibition at 11210 g/ha (Indian Mustard [13]; 11.21 kg/ha): 90%; inhibition at 11210 g/ha (Yellow nutsedge [14]; 11.21 kg/ha): 30%; inhibition at 11210 g/ha (Barnyardgrass [15]; 11.21 kg/ha): 90%; inhibition at 11210 g/ha (Annual bluegrass [16]; 11.21 kg/ha): 60%; inhibition at 11210 g/ha (Velvetleaf [17]; 11.21 kg/ha): 100%; inhibition at 11210 g/ha (Seedling johnsongrass [18]; 11.21 kg/ha): 70%; inhibition at 11210 g/ha (Cocklebur [19]; 11.21 kg/ha): 70%; inhibition at 11210 g/ha (Downy Brome [20]; 11.21 kg/ha): 80%
